Measurements published in paper PMC8145110, “Design, Synthesis, and Antibacterial Screening of Some Novel Heteroaryl-Based Ciprofloxacin Derivatives as DNA Gyrase and Topoisomerase IV Inhibitors” (Pharmaceuticals, 2021).
≈ marks a conversion by molar mass, not a printed value.

What was measured:
S. aureus = assay: MIC, two-fold serial dilution, S. aureus; format: cell-based, Staphylococcus aureus; details: for MIC: Staphylococcus aureus, read-out: Minimum Inhibitory Concentration (MIC), S. aureus
Procedure: (§1) Table 2, using the reference drug ciprofloxacin, was presented with the MICs (minimal inhibitory concentrations) of these compounds against tested bacteria. […] The nature of aromatic substitution in the oxadiazole moiety tends to be correlated with higher antibacterial effects and the activity increased with (Ar) in the order of 2-pyridyl ≥ 3-pyridyl > 4-pyridyl > 2-Cl-Ph > 2-naphthyl.
(§2) On 96-well microtiter plates and […] of fresh bacterial culture of a single McFarland unit overnight, a double serial dilution of each compound […] in sterile standard saline was prepared for every single source well. Ciprofloxacin antibiotic (5 mg/mL^−1) and normal saline were included as standard references in each assay (see Appendix A).
(§3) In 96-well microtiter plates and […] of fresh bacterial culture of a single McFarland unit overnight, a double serial dilution of each compound […] in sterile standard saline was prepared for every single source well. Ciprofloxacin antibiotic (5 mg/mL^−1) and normal saline were included as standard reference in each assay. The plates were incubated at 37 °C overnight. As an indicator of bacterial growth, […] of p-iodonitrotetrazolium violet (INT) was added to each well and incubated at 37 °C for 30 min. […] The colorless tetrazolidium salt acts as an electron accepter and is reduced to a red colored formazan product by biological activity organisms. Where bacterial growth was inhibited, the solution in the well remained clear after incubation with INT.

[1] = test system: Staphylococcus aureus (ATCC 12600); assay: Kirby-Bauer disc diffusion, S. aureus; format: cell-based; details: % of ciprofloxacin
Procedure: (§4) An updated Kirby-Bauer disc diffusion method was used to assess the antimicrobial activity of the tested samples [32, 33, 34, 35]. Using ciprofloxacin as a reference drug, synthetic compounds 1–21 were tested in vitro for antibacterial activity against S. aureus and B. subtilis as Gram-positive strains and E. coli and P. aeruginosa as Gram-negative strains. […]. […].
(§5) The cultures used were collected from the Cairo University’s Microanalytical Centre, Faculty of Science. An updated Kirby-Bauer disc diffusion method was applied for antimicrobial activities of the tests 1–21 compounds [32, 33, 34, 35]. See Appendix A.
The cultures used were collected from the Cairo University’s Microanalytical Centre, Faculty of Science. An updated Kirby-Bauer disc diffusion method was applied for the antimicrobial activities of the tests for compounds 1–21 [28]. Shortly after, 10 mL of fresh medium was grown to 100 μL bacteria/food until a count of 10^8 cells/mL or 10^5 cells/mL was achieved. One hundred μL microbial suspension was spread over agar plates that suited the broth in which it was held. The selected colonies of each organism that may play a pathogenic function should be from the primary agar plates and tested by the disc diffusion method for susceptibility. Plates inoculated with filamentous fungi as Aspergillus flavus were incubated at 25 °C for 48 h; Gram positive bacteria as Staphylococcus aureus (ATCC 12600, Microanalytical center, Cairo, Egypt), Bacillus subtilis (ATCC 6051); Gram negative bacteria as Escherichia coli (ATCC 11775), Pseudomonas aeuroginosa (ATCC 10145) were incubated at 35–37 °C for 24–48 h and yeast as Candida albicans (ATCC 7102) was incubated at 30 °C for 24–48 h and, then the diameters of the inhibition zones were measured in millimeters. Standard discs of ciprofloxacin (antibacterial agent), fluconazole (antifungal agent) served as positive controls for antimicrobial activity, but filter discs impregnated with 10 µL of solvent (distilled water, chloroform, DMSO) were used as a negative control. Blank paper disks (Schleicher and Schuell, Cytiva, Spain) with a diameter of 8.0 mm were impregnated with 10 µL of tested concentration of the stock solutions. When a filter paper disc impregnated with a tested chemical is placed on agar, the chemical will diffuse from the disc into the agar. This diffusion will place the chemical in the agar only around the disc. The solubility of the chemical and its molecular size will determine the size of the area of chemical infiltration around the disc. […] For the disc diffusion, the zone diameters were measured with slipping calipers of the National Committee for Clinical Laboratory Standards, and the results are given in Table 1. […]

E. coli DNA gyrase = target: T1, E. coli DNA gyrase (Escherichia coli, UniProt P0AES4+P0AES6); assay: E. coli DNA gyrase assay; format: biochemical
T1 construct: purchased Inspiralis
T1 sequence (P0AES4 whole entry, one chain of several): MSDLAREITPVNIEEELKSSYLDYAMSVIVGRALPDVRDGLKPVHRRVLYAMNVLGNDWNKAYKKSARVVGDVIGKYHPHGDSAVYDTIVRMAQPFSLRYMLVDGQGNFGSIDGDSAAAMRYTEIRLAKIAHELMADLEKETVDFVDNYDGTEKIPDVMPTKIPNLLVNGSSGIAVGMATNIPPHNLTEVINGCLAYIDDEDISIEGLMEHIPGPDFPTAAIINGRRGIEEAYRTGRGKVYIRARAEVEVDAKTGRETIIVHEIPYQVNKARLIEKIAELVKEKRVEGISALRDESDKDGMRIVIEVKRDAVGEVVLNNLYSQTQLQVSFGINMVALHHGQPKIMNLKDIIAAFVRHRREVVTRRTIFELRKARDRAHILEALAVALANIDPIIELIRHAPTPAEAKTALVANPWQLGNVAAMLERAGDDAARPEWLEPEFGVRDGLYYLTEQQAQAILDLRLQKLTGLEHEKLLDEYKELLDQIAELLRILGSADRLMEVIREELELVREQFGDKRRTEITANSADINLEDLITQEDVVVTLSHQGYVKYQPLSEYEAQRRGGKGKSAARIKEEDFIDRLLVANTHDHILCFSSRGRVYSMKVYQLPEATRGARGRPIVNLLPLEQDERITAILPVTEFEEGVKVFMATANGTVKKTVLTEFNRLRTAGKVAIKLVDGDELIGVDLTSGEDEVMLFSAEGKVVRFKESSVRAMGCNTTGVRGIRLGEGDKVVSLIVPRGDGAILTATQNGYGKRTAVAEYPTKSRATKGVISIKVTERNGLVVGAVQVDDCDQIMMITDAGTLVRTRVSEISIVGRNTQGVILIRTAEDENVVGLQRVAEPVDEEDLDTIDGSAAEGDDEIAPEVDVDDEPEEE
Procedure: (§6) IC50 assay determination was carried out in accordance with the procedures previously stated (see Appendix A).
(§7) Inhibitory activities were determined in an assay from Inspiralis on streptavidin-coated 96-well microtiter plates from Thermo scientific Pierce. […] After washing off the unbound oligonucleotide, the enzyme test was performed. […] After that, the TF buffer (50 mM NaOAc with pH 5.0, 50 mM NaCl and 50 mM MgCl2) was added to terminate the enzymatic reaction. After additional incubation for 30 min at rt, during which biotin-oligonucleotide-plasmid triplex was 19 formed, the unbound plasmid was washed off using TF buffer and SybrGOLD in T10 buffer (10 mM Tris HCl with pH 8.0 and 1 mM EDTA) was added. […] Initial screening was done at 100 or 10 μM concentration of inhibitors. […] GraphPad Prism software was used to calculate the IC50 values. The result is given as the average value of three independent measurements. […] Determination of inhibitory activities on E. coli and S. aureus Topoisomerase IV IC50 values were determined in an assay from Inspiralis on streptavidin-coated 96-well microtiter plates from Thermo scientific Pierce. […] After washing off the unbound oligonucleotide, the enzyme test was performed. The reaction volume of 30 μL in buffer (40 mM HEPES KOH with pH 7.6, 100 mM potassium glutamate, 10 mM magnesium acetate, 10 mM DTT, 1 mM ATP, 0.05 mg/mL albumin) contained 1.5 U of topoisomerase IV from E. coli or S. aureus, 0.75 μg of pNO1 supercoiled plasmid, and 3 μL solution of the inhibitor in DMSO (10%) and Tween 20 (0.008%). […] After additional incubation for 30 min at rt, during which triplex (biotin-oligonucleotide-plasmid) was formed, the unbound plasmid was washed off using TF buffer and SybrGOLD in T10 buffer (10 mM Tris HCl with pH 8.0 and 1 mM EDTA) was added. […] Initial screening was done at 100 or 10 μM concentration of inhibitors. […] GraphPad Prism software was used to calculate the IC50 values. The result is given as the average value of three independent measurements.

E. coli topoisomerase IV = target: T2, E. coli topoisomerase IV (Escherichia coli, UniProt P0AFI2+P20083); assay: E. coli topoisomerase IV assay; format: biochemical
T2 construct: purchased Inspiralis
T2 sequence (P0AFI2 whole entry): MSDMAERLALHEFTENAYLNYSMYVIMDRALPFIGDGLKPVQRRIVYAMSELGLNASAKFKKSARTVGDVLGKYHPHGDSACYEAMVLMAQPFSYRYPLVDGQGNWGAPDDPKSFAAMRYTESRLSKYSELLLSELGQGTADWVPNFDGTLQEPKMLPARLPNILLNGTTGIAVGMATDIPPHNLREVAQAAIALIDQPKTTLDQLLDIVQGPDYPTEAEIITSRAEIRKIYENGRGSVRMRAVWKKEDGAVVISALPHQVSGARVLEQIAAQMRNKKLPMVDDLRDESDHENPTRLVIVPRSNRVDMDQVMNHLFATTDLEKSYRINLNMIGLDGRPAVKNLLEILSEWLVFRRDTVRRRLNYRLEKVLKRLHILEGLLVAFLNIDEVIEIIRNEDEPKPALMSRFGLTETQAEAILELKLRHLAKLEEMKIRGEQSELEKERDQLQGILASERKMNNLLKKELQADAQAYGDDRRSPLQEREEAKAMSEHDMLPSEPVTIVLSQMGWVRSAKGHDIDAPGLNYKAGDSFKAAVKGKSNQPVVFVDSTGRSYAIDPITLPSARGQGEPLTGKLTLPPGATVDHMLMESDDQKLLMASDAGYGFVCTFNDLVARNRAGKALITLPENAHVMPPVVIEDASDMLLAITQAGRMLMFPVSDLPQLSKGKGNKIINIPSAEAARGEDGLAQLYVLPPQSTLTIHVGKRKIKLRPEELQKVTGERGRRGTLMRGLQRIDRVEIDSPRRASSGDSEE
T2 sequence (P20083 whole entry): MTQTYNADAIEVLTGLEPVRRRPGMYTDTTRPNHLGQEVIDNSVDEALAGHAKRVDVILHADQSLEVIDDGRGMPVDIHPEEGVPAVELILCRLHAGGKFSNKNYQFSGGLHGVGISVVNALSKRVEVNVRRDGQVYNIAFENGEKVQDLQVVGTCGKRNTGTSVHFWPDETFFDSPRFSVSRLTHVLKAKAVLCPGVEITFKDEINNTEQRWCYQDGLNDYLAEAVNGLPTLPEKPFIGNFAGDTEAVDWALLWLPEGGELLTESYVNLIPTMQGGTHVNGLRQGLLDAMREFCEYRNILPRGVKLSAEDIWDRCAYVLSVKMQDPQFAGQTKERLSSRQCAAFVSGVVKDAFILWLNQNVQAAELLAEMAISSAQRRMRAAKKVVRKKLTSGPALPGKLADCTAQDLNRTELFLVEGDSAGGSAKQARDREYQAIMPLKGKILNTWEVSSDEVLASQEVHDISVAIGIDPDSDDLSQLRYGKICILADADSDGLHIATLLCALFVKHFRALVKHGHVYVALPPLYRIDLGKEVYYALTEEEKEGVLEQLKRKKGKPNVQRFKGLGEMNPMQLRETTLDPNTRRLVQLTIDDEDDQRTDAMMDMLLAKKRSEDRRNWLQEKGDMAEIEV
Procedure: as §6, §7

B. subtilis = assay: MIC, two-fold serial dilution, B. subtilis; format: cell-based; details: Bacillus subtilis; read-out: Minimum Inhibitory Concentration (MIC), B. subtilis
Procedure: as §1, §2, §3

P. aeruginosa = assay: MIC, two-fold serial dilution, P. aeruginosa; format: cell-based; details: Pseudomonas aeruginosa; read-out: Minimum Inhibitory Concentration (MIC), P. aeruginosa
Procedure: as §1, §2, §3

E. coli = assay: MIC, two-fold serial dilution, E. coli; format: cell-based; details: Escherichia coli; read-out: Minimum Inhibitory Concentration (MIC), E. coli
Procedure: as §1, §2, §3

[2] = Cell viability assay (MTT); format: cell-based; parameters: dose or concentration left out as unconfirmed; details: human, MCF-10A mammary gland epithelial cells, four days
Procedure: A human mammary gland epithelial cell line (MCF-10A) was used to conduct a cell viability assay. Compounds 2–6 were incubated with MCF-10A cells for four days, and the viability of the cells was determined using the 3-(4,5-dimethylthiazol-2-yl)-2,5-diphenyltetrazolium bromide (MTT) assay. All compounds had no cytotoxic effects, and the viability of the cells was greater than 85% for most of the compounds examined […], as shown in Table 4.
MTT Assay was performed to investigate the effect of compounds 2–6 on the viability of mammary epithelial cells (MCF-10A) (see Appendix A).

[3] = test system: Escherichia coli (ATCC 11775); assay: Kirby-Bauer disc diffusion, E. coli; format: cell-based; details: % of ciprofloxacin
Procedure: as §4, §5
The cultures used were collected from the Cairo University’s Microanalytical Centre, Faculty of Science. An updated Kirby-Bauer disc diffusion method was applied for the antimicrobial activities of the tests for compounds 1–21 [28]. Shortly after, 10 mL of fresh medium was grown to 100 μL bacteria/food until a count of 10^8 cells/mL or 10^5 cells/mL was achieved. One hundred μL microbial suspension was spread over agar plates that suited the broth in which it was held. The selected colonies of each organism that may play a pathogenic function should be from the primary agar plates and tested by the disc diffusion method for susceptibility. Plates inoculated with filamentous fungi as Aspergillus flavus were incubated at 25 °C for 48 h; Gram positive bacteria as Staphylococcus aureus (ATCC 12600, Microanalytical center, Cairo, Egypt), Bacillus subtilis (ATCC 6051); Gram negative bacteria as Escherichia coli (ATCC 11775), Pseudomonas aeuroginosa (ATCC 10145) were incubated at 35–37 °C for 24–48 h and yeast as Candida albicans (ATCC 7102) was incubated at 30 °C for 24–48 h and, then the diameters of the inhibition zones were measured in millimeters. […] For the disc diffusion, the zone diameters were measured with slipping calipers of the National Committee for Clinical Laboratory Standards, and the results are given in Table 1. […]

Row | Compound | MIC (S. aureus) | MIC (B. subtilis) | MIC (P. aeruginosa) | MIC (E. coli) | viability at 4 days [2] | melting point | also measured
1 | O=C(O)c1cn(C2CC2)c2cc(N3CCN(Cn4nc(-c5cccnc5)oc4=S)CC3)c(F)cc2c1=O [Compound 5, 1-Cyclopropyl-6-fluoro-4-oxo-7-[4-(5-pyridin-3-yl-2-thioxo-[1,3,4]oxadiazol-3-yl-methyl)-piperazin-1-yl]-1,4-dihydro-quinoline-3-carboxylic acid] | 0.035 µg/mL (≈ 0.067 µM) | 0.125 µg/mL (≈ 0.239 µM) | 0.125 µg/mL (≈ 0.239 µM) | 0.062 µg/mL (≈ 0.119 µM) | 91% | 230 °C | antibacterial activity relative to ciprofloxacin, S. aureus [1]: equipotent; IC50 (E. coli DNA gyrase): 0.092 ± 0.009 µM; IC50 (E. coli topoisomerase IV): 6.8 ± 0.2 µM; antibacterial activity relative to ciprofloxacin, E. coli [3]: equipotent
2 | O=C(O)c1cn(C2CC2)c2cc(N3CCNCC3)c(F)cc2c1=O [Ciprofloxacin] | 0.03 µg/mL (≈ 0.0905 µM) | 0.01 µg/mL (≈ 0.0302 µM) | 0.06 µg/mL (≈ 0.181 µM) | 0.06 µg/mL (≈ 0.181 µM) | – | – | MIC, S. aureus (S. aureus): 0.03 µg/mL (≈ 0.0905 µM)
3 | O=C(O)c1cn(C2CC2)c2cc(N3CCN(Cn4nc(-c5ccccc5Cl)oc4=S)CC3)c(F)cc2c1=O [Compound 2, 7-{4-[5-(2-Chloro-phenyl)-2-thioxo-[1,3,4]oxadiazol-3-ylmethyl]-piperazin-1-yl}-1-cyclopropyl-6-fluoro-4-oxo-1,4-dihydro-quinoline-3-carboxylic acid] | 0.162 µg/mL (≈ 0.291 µM) | 0.125 µg/mL (≈ 0.225 µM) | 0.125 µg/mL (≈ 0.225 µM) | 0.125 µg/mL (≈ 0.225 µM) | 87% | 226 °C | MIC, S. aureus (S. aureus): 0.062 µg/mL (≈ 0.112 µM); remaining activity at 1 µM (E. coli DNA gyrase; read-out: RA (%), residual activity of E. coli DNA Gyrase): 57%; remaining activity at 1 µM (E. coli topoisomerase IV; read-out: RA (%), residual activity of E. coli Topo IV): 89%
4 | O=C(O)c1cn(C2CC2)c2cc(N3CCN(CN4C(=O)SC(=Cc5ccccc5O)C4=O)CC3)c(F)cc2c1=O [Compound 19, 1-Cyclopropyl-6-fluoro-7-{4-[5-(2-hydroxy-benzylidene)-2,4-dioxo-thiazolidin-3-ylmethyl]-piperazin-1-yl}-4-oxo-1,4-dihydro-quinoline-3-carboxylic acid] | – | – | – | – | – | 244 °C | –
5 | O=C(O)c1cn(C2CC2)c2cc(N3CCN(CN4C(=O)c5ccccc5C4=O)CC3)c(F)cc2c1=O [Compound 20, 1-Cyclopropyl-7-[4-(1,3-dioxo-1,3-dihydro-isoindol-2-ylmethyl)-piperazin-1-yl]-6-fluoro-4-oxo-1,4-dihydro-quinoline-3-carboxylic acid] | – | – | – | – | – | 241 °C | –
6 | N#CN=C1NC(c2ccccc2)(c2ccccc2)C(=O)N1CN1CCN(c2cc3c(cc2F)c(=O)c(C(=O)O)cn3C2CC2)CC1 [Compound 15, 7-[4-(2-Cyanoimino-5-oxo-4,4-diphenyl-imidazolidin-1-ylmethyl)-piperazin-1-yl]-1-cyclopropyl-6-fluoro-4-oxo-1,4-dihydro-quinoline-3-carboxylic acid] | – | – | – | – | – | 230 °C | –
7 | O=C(O)c1cn(C2CC2)c2cc(N3CCN(CN4C(=O)C(c5ccccc5)(c5ccccc5)NC4=S)CC3)c(F)cc2c1=O [Compound 13, 1-Cyclopropyl-6-fluoro-4-oxo-7-[4-(5-oxo-4,4-diphenyl-2-thioxo-imidazolidin-1-ylmethyl)-piperazin-1-yl]-1,4-dihydro-quinoline-3-carboxylic acid] | – | – | – | – | – | 217 °C | –
8 | O=C(O)c1cn(C2CC2)c2cc(N3CCN(Cn4nc(-c5ccncc5)oc4=S)CC3)c(F)cc2c1=O [Compound 6, 1-Cyclopropyl-6-fluoro-4-oxo-7-[4-(5-pyridin-4-yl-2-thioxo-[1,3,4]oxadiazol-3-yl-methyl)-piperazin-1-yl]-1,4-dihydro-quinoline-3-carboxylic acid] | 0.031 µg/mL (≈ 0.0593 µM) | 0.125 µg/mL (≈ 0.239 µM) | 0.125 µg/mL (≈ 0.239 µM) | 0.125 µg/mL (≈ 0.239 µM) | 87% | – | antibacterial activity relative to ciprofloxacin, S. aureus [1]: 120%; IC50 (E. coli DNA gyrase): 0.18 ± 0.02 µM; IC50 (E. coli topoisomerase IV): 8.92 ± 0.2 µM
9 | O=C(O)c1cn(C2CC2)c2cc(N3CCN(Cn4nc(-c5ccncc5)n(-c5ccccc5)c4=S)CC3)c(F)cc2c1=O [Compound 12, 1-Cyclopropyl-6-fluoro-4-oxo-7-[4-(4-phenyl-3-pyridin-4-yl-5-thioxo-4,5-dihydro-[1,2,4]triazol-1-ylmethyl)-piperazin-1-yl]-1,4-dihydro-quinoline-3-carboxylic acid] | – | – | – | – | – | 227 °C | –
